Laboratory results reported in PubChem BioAssay (NCI).
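Where inhibition never reached the appropriate level, the endpoint shown equals the highest concentration tested. Otherwise, values were interpolated linearly from a five-concentration, 48-hour dose response in 96-well plates. The concentration for full growth arrest is given as TGI.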

Key:
Test in all cases: NCI-60 cell line screen, 48 h
CAKI-1 renal = tested on: CAKI-1 renal
EKVX NSCLC = tested on: EKVX NSCLC
IGROV1 ovarian = tested on: IGROV1 ovarian
NCI-H522 lung = tested on: NCI-H522 lung
SK-MEL-5 melanoma = tested on: SK-MEL-5 melanoma
HL-60(TB) leukemia = tested on: HL-60(TB) leukemia
SNB-19 CNS = tested on: SNB-19 CNS
RXF 393 renal = tested on: RXF 393 renal
SF-295 CNS = tested on: SF-295 CNS
A498 renal = tested on: A498 renal
KM12 colon = tested on: KM12 colon
UACC-257 melanoma = tested on: UACC-257 melanoma
NCI-H226 lung = tested on: NCI-H226 lung
SF-539 CNS = tested on: SF-539 CNS
OVCAR-5 ovarian = tested on: OVCAR-5 ovarian
786-0 renal = tested on: 786-0 renal
HCC-2998 colon = tested on: HCC-2998 colon
ACHN renal = tested on: ACHN renal
MOLT-4 leukemia = tested on: MOLT-4 leukemia
TK-10 renal = tested on: TK-10 renal
KM20L2 colon = tested on: KM20L2 colon
OVCAR-3 ovarian = tested on: OVCAR-3 ovarian
UACC-62 melanoma = tested on: UACC-62 melanoma
DMS 114 small cell lung = tested on: DMS 114 small cell lung
SN12C renal = tested on: SN12C renal
SK-OV-3 ovarian = tested on: SK-OV-3 ovarian
LXFL 529 NSCLC = tested on: LXFL 529 NSCLC
DMS 273 small cell lung = tested on: DMS 273 small cell lung
HT29 colon = tested on: HT29 colon
OVCAR-8 ovarian = tested on: OVCAR-8 ovarian
A549 NSCLC = tested on: A549 NSCLC
NCI-H460 lung = tested on: NCI-H460 lung
M14 melanoma = tested on: M14 melanoma
HOP-92 NSCLC = tested on: HOP-92 NSCLC
OVCAR-4 ovarian = tested on: OVCAR-4 ovarian
LOX IMVI melanoma = tested on: LOX IMVI melanoma
SF-268 CNS = tested on: SF-268 CNS
HOP-62 NSCLC = tested on: HOP-62 NSCLC
K-562 leukemia = tested on: K-562 leukemia
U251 CNS = tested on: U251 CNS
UO-31 renal = tested on: UO-31 renal
DLD-1 colon = tested on: DLD-1 colon
SNB-75 CNS = tested on: SNB-75 CNS
NCI-H23 lung = tested on: NCI-H23 lung
HOP-18 NSCLC = tested on: HOP-18 NSCLC
M19-MEL melanoma = tested on: M19-MEL melanoma
HCT-15 colon = tested on: HCT-15 colon
MALME-3M melanoma = tested on: MALME-3M melanoma
HCT-116 colon = tested on: HCT-116 colon
RPMI-8226 leukemia = tested on: RPMI-8226 leukemia
SK-MEL-2 melanoma = tested on: SK-MEL-2 melanoma
SW-620 colon = tested on: SW-620 colon
SK-MEL-28 melanoma = tested on: SK-MEL-28 melanoma
CCRF-CEM leukemia = tested on: CCRF-CEM leukemia
COLO 205 colon = tested on: COLO 205 colon
MDA-MB-231 breast = tested on: MDA-MB-231 breast
SR leukemia = tested on: SR leukemia
NCI/ADR-RES ovarian = tested on: NCI/ADR-RES ovarian
MDA-MB-435 = tested on: MDA-MB-435
T-47D breast = tested on: T-47D breast
BT-549 breast = tested on: BT-549 breast
MCF7 breast = tested on: MCF7 breast
HS 578T breast = tested on: HS 578T breast
MDA-N = tested on: MDA-N
DU-145 prostate = tested on: DU-145 prostate
PC-3 prostate = tested on: PC-3 prostate

COC(=O)CC(C(C(=O)OC)C(=O)OC)N1C(=O)OC(c2ccccc2)C1c1ccccc1 (stereo unspecified)
TGI (CAKI-1 renal): 39 µM | TGI (EKVX NSCLC): > 100 µM | TGI (IGROV1 ovarian): > 100 µM | TGI (NCI-H522 lung): > 100 µM | TGI (SK-MEL-5 melanoma): > 100 µM | TGI (HL-60(TB) leukemia): > 100 µM | TGI (SNB-19 CNS): > 100 µM | TGI (RXF 393 renal): > 100 µM | TGI (SF-295 CNS): > 100 µM | TGI (A498 renal): > 100 µM | TGI (KM12 colon): > 100 µM | TGI (UACC-257 melanoma): > 100 µM | TGI (NCI-H226 lung): > 100 µM | TGI (SF-539 CNS): > 100 µM | TGI (OVCAR-5 ovarian): > 100 µM | TGI (786-0 renal): > 100 µM | TGI (HCC-2998 colon): 93.1 µM | TGI (ACHN renal): > 100 µM | TGI (MOLT-4 leukemia): > 100 µM | TGI (TK-10 renal): > 100 µM | TGI (KM20L2 colon): > 100 µM | TGI (OVCAR-3 ovarian): > 100 µM | TGI (UACC-62 melanoma): > 100 µM | TGI (DMS 114 small cell lung): > 100 µM | TGI (SN12C renal): > 100 µM | TGI (SK-OV-3 ovarian): > 100 µM | TGI (LXFL 529 NSCLC): > 100 µM | TGI (DMS 273 small cell lung): > 100 µM | TGI (HT29 colon): > 100 µM | TGI (OVCAR-8 ovarian): > 100 µM | TGI (A549 NSCLC): > 100 µM | TGI (NCI-H460 lung): > 100 µM | TGI (M14 melanoma): > 100 µM | TGI (HOP-92 NSCLC): > 100 µM | TGI (OVCAR-4 ovarian): > 100 µM | TGI (LOX IMVI melanoma): > 100 µM | TGI (SF-268 CNS): > 100 µM | TGI (HOP-62 NSCLC): > 100 µM | TGI (K-562 leukemia): > 100 µM | TGI (U251 CNS): > 100 µM | TGI (UO-31 renal): > 100 µM | TGI (DLD-1 colon): > 100 µM | TGI (SNB-75 CNS): > 100 µM | TGI (NCI-H23 lung): > 100 µM | TGI (HOP-18 NSCLC): > 100 µM | TGI (M19-MEL melanoma): > 100 µM | TGI (HCT-15 colon): > 100 µM | TGI (MALME-3M melanoma): > 100 µM | TGI (HCT-116 colon): > 100 µM | TGI (RPMI-8226 leukemia): > 100 µM | TGI (SK-MEL-2 melanoma): > 100 µM | TGI (SW-620 colon): 74.3 µM | TGI (SK-MEL-28 melanoma): > 100 µM | TGI (CCRF-CEM leukemia): > 100 µM | TGI (COLO 205 colon): > 100 µM

CC(NC1=CC(=O)c2cccnc2C1=O)C(O)c1ccccc1 (stereo unspecified)
TGI (CAKI-1 renal): 7.23 µM | TGI (EKVX NSCLC): 20.1 µM | TGI (IGROV1 ovarian): 6.18 µM | TGI (MDA-MB-231 breast): > 46.3 µM | TGI (NCI-H522 lung): 3.57 µM | TGI (SK-MEL-5 melanoma): 2.44 µM | TGI (HL-60(TB) leukemia): 6.69 µM | TGI (SNB-19 CNS): 5.66 µM | TGI (RXF 393 renal): 16.5 µM | TGI (SF-295 CNS): 2.63 µM | TGI (A498 renal): 8.82 µM | TGI (KM12 colon): 27.8 µM | TGI (SR leukemia): > 23.1 µM | TGI (UACC-257 melanoma): 2.84 µM | TGI (NCI-H226 lung): 4.44 µM | TGI (SF-539 CNS): 3.75 µM | TGI (OVCAR-5 ovarian): 4.69 µM | TGI (NCI/ADR-RES ovarian): 24.2 µM | TGI (786-0 renal): 12.2 µM | TGI (MDA-MB-435): 3.13 µM | TGI (HCC-2998 colon): 10.8 µM | TGI (ACHN renal): 14.5 µM | TGI (MOLT-4 leukemia): 22.4 µM | TGI (TK-10 renal): 28.1 µM | TGI (OVCAR-3 ovarian): 6 µM | TGI (UACC-62 melanoma): 3.1 µM | TGI (SN12C renal): 3.04 µM | TGI (SK-OV-3 ovarian): 23.4 µM | TGI (T-47D breast): 18.7 µM | TGI (HT29 colon): 9.45 µM | TGI (OVCAR-8 ovarian): 17.6 µM | TGI (A549 NSCLC): 5.13 µM | TGI (NCI-H460 lung): 2.78 µM | TGI (M14 melanoma): 3.12 µM | TGI (HOP-92 NSCLC): 24.5 µM | TGI (OVCAR-4 ovarian): 11.1 µM | TGI (LOX IMVI melanoma): 3.16 µM | TGI (SF-268 CNS): 20.8 µM | TGI (HOP-62 NSCLC): 3.03 µM | TGI (K-562 leukemia): 5.93 µM | TGI (U251 CNS): 13.2 µM | TGI (UO-31 renal): 9.49 µM | TGI (BT-549 breast): 3.59 µM | TGI (MCF7 breast): 3.04 µM | TGI (SNB-75 CNS): 3.05 µM | TGI (NCI-H23 lung): 3.01 µM | TGI (HCT-15 colon): 8.08 µM | TGI (HS 578T breast): 8.14 µM | TGI (MALME-3M melanoma): 2.94 µM | TGI (HCT-116 colon): 7.79 µM | TGI (RPMI-8226 leukemia): 6.7 µM | TGI (SK-MEL-2 melanoma): 4.48 µM | TGI (SW-620 colon): 3.89 µM | TGI (SK-MEL-28 melanoma): 3.1 µM | TGI (MDA-N): 1.3 µM | TGI (CCRF-CEM leukemia): 25.5 µM | TGI (COLO 205 colon): 3.42 µM | TGI (DU-145 prostate): 3.65 µM | TGI (PC-3 prostate): 10.6 µM

CCC1(CC)N=C(C(F)(F)F)c2cc(C(=O)C(F)(F)F)c3ccccc3c2N1
TGI (CAKI-1 renal): > 100 µM | TGI (EKVX NSCLC): 64.2 µM | TGI (IGROV1 ovarian): 23 µM | TGI (MDA-MB-231 breast): 12.3 µM | TGI (NCI-H522 lung): 11.1 µM | TGI (SK-MEL-5 melanoma): 11.4 µM | TGI (HL-60(TB) leukemia): 8.25 µM | TGI (SNB-19 CNS): > 100 µM | TGI (RXF 393 renal): 9.87 µM | TGI (SF-295 CNS): 9.6 µM | TGI (A498 renal): 35.3 µM | TGI (KM12 colon): > 100 µM | TGI (SR leukemia): 9.36 µM | TGI (UACC-257 melanoma): 33.9 µM | TGI (NCI-H226 lung): 20.9 µM | TGI (SF-539 CNS): 31.8 µM | TGI (OVCAR-5 ovarian): 58.1 µM | TGI (NCI/ADR-RES ovarian): 42.1 µM | TGI (786-0 renal): 13.7 µM | TGI (MDA-MB-435): > 100 µM | TGI (HCC-2998 colon): 15.3 µM | TGI (ACHN renal): > 100 µM | TGI (TK-10 renal): 61.3 µM | TGI (OVCAR-3 ovarian): 8.58 µM | TGI (UACC-62 melanoma): 13.3 µM | TGI (SN12C renal): 13.7 µM | TGI (SK-OV-3 ovarian): 49.7 µM | TGI (T-47D breast): 15.2 µM | TGI (HT29 colon): 81.4 µM | TGI (OVCAR-8 ovarian): > 100 µM | TGI (A549 NSCLC): 60.7 µM | TGI (NCI-H460 lung): 24.1 µM | TGI (M14 melanoma): 25.3 µM | TGI (HOP-92 NSCLC): 10.2 µM | TGI (OVCAR-4 ovarian): > 100 µM | TGI (LOX IMVI melanoma): 13.7 µM | TGI (SF-268 CNS): 27 µM | TGI (HOP-62 NSCLC): 28.5 µM | TGI (K-562 leukemia): > 100 µM | TGI (U251 CNS): 23.6 µM | TGI (UO-31 renal): 16.9 µM | TGI (BT-549 breast): 29 µM | TGI (MCF7 breast): 27.4 µM | TGI (SNB-75 CNS): 23 µM | TGI (NCI-H23 lung): 11.2 µM | TGI (HCT-15 colon): > 100 µM | TGI (HS 578T breast): 32.2 µM | TGI (MALME-3M melanoma): 57.3 µM | TGI (HCT-116 colon): 16.1 µM | TGI (SK-MEL-2 melanoma): 10.4 µM | TGI (SW-620 colon): > 100 µM | TGI (SK-MEL-28 melanoma): 52.2 µM | TGI (MDA-N): 15.7 µM | TGI (CCRF-CEM leukemia): 31.1 µM | TGI (COLO 205 colon): 28.4 µM | TGI (DU-145 prostate): 21.5 µM | TGI (PC-3 prostate): > 100 µM
